Consider seven molecules from patent US9005579B2 (priority 2010, dated 2015).

Experiment [1] deals with sortase (Staphylococcus aureus, UniProt Q2FV99). The settings on record: in vitro and in vivo; react with Cys184; cited from earlier work.
The subject of experiment [2] is Protein A negative Staphylococcus aureus derived from strain 8325-4. Put plainly: Growth of S. aureus with sub-MIC antibiotic with or without mouse anti-sortase monoclonal antibody (OD600, 12 h). The class given is cell-based. The settings on record: sub-MIC antibiotic + tissue culture medium, no Ab. An excerpt:
In a separate set of experiments, we assessed the effect of anti-sortase antibodies, in the presence and absence of antibiotic, on the growth of the staphylococci. Monoclonal supernatants were used for these experiments and tissue culture media used as controls. […] Exemplary growth curve results with monoclonal antibody 7C2 at 1:10 dilution are depicted in FIG. 5. The growth results are tabulated in TABLE 3 below based on final OD readings of multiple growth experiments. In each instance, significant growth inhibition is observed with a combination of sub-MIC antibiotics and anti-sortase antibody.
Protein A negative Staphylococcus aureus derived from strain 8325-4 was grown to OD600 0.5 in Brain-Heart Infusion medium at 37° C. (Patel A H et al (1987) Infect Immun 55(12):3103-3110). When applicable, antibiotics were added to the media at sub-MIC doses.
Mouse anti-sortase monoclonals were added to each cell-antibiotic culture at a dilution of either 1:10 or 1:100. OD600 values were measured every 5 mins for 12 hours in a 96-well spectrophotometer.

Experiment [3] relates to Staphylococci (protein A negative S. aureus strain 8325-4). Put plainly: Ampicillin and penicillin MIC (serial 2-fold dilutions, microtiter plate). It is filed as cell-based, Staphylococcus aureus. The settings on record: for highest dilution of antibiotic showing normal growth (sub-MIC used in experiments): 12 h, BHI media; for growth of staphylococci in the presence of sub-MIC of antibiotic: no antibody. The method, then: The MIC dose of two cell wall affecting antibiotics, ampicillin and penicillin, was determined for the protein A negative S. aureus strain 8325-4.
Serial 2-fold dilutions of penicillin and ampicillin were prepared in a microtiter plate. Overnight culture of Staphylococci were diluted 1:100 in BHI media and 100 ul was added to each well and the plate incubated for 12 h. Wells without antibiotic served as controls. The highest dilution of antibiotic showing normal growth was used for further experiments. Ampicillin at 0.1 ug/ml and Penicillin at 0.02 ug/ml were used in these experiments.

The test system of experiment [4] is E. coli O111:B4. The settings on record: overnight incubation, inhibitory concentrations; cited from earlier work.
For experiment [5] the following is noted: D-Ala-D-Ala termini replaced with D-Ala-D-Lac in VRE; cited from earlier work.

Chain of sortase (Q2FV99 whole entry): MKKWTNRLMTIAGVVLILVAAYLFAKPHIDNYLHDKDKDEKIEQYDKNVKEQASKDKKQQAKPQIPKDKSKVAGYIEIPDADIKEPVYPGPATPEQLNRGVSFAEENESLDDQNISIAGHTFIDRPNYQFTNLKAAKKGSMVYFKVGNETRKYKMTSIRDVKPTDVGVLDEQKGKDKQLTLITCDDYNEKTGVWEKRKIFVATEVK

Take `C[N+](C)(C)CCSS(C)(=O)=O` [MTSET]: the sortase inhibition result in experiment [1] was “inhibit sortase in vitro and in vivo”.

With `CS(=O)(=O)SCCS(=O)(=O)O` [(2-sulfonatoethyl)methane-thiosulfonate], the sortase inhibition entry in experiment [1] is “inhibit sortase in vitro and in vivo”.

Regarding `CC1(C)S[C@@H]2[C@H](NC(=O)[C@H](N)c3ccccc3)C(=O)N2[C@H]1C(=O)O` [AMP, Ampicillin], in experiment [2] (control of Ab 1:10), the “Average OD” value is 0.3308, the “Final OD Reading 1” value is 0.2975 and the “Final OD Reading 2” value is 0.3641. Besides, in experiment [2] (control of Ab 1:100), the “Average OD” value is on record as 0.4421, the “Final OD Reading 1” value amounted to 0.4216 and the “Final OD Reading 2” value is recorded as 0.4627. Besides, in experiment [3], the “highest dilution of antibiotic showing normal growth (sub-MIC used in experiments)” value worked out at 0.1 µg/mL and the “growth of staphylococci in the presence of sub-MIC of antibiotic” value is reported as “grow similar to control bacteria without antibiotic”.

For Penicillin [PCN], in experiment [2] (control of Ab 1:10), the “Average OD” value was determined as 0.2446, the “Final OD Reading 1” value was 0.218 and the “Final OD Reading 2” value amounted to 0.2712. In addition, in experiment [2] (control of Ab 1:100), the “Average OD” value turned out to be 0.3534, the “Final OD Reading 1” value worked out at 0.3508 and the “Final OD Reading 2” value came out at 0.3561. Besides, in experiment [3], the “highest dilution of antibiotic showing normal growth (sub-MIC used in experiments)” value stood at 0.02 µg/mL and the “growth of staphylococci in the presence of sub-MIC of antibiotic” value is on record as “grow similar to control bacteria without antibiotic”.

Turning to `CC(C)(O/N=C(\C(=O)N[C@@H]1C(=O)N2C(C(=O)[O-])=C(C[n+]3ccccc3)CS[C@H]12)c1csc(N)n1)C(=O)O` [caftazidime], the “HA-1A binding after exposure to the antibiotic” value in experiment [4] is listed as “dose-dependent enhancement of HA-1A binding”.

With `CN[C@H](CC(C)C)C(=O)N[C@H]1C(=O)N[C@@H](CC(N)=O)C(=O)N[C@H]2C(=O)N[C@H]3C(=O)N[C@H](C(=O)N[C@H](C(=O)O)c4cc(O)cc(O)c4-c4cc3ccc4O)[C@H](O)c3ccc(c(Cl)c3)Oc3cc2cc(c3O[C@@H]2O[C@H](CO)[C@@H](O)[C@H](O)[C@H]2O[C@H]2C[C@](C)(N)[C@H](O)[C@H](C)O2)Oc2ccc(cc2Cl)[C@H]1O` [vancomycin], the “decrease in vancomycin affinity” value in experiment [5] was 1000 fold.

Regarding gentamicin, the “HA-1A binding after exposure to the antibiotic” value in experiment [4] was “not enhanced”.
